# Data published in article PMC9663578, “A fluorogenic probe for predicting treatment response in non-small cell lung cancer with EGFR-activating mutations” (Nature Communications, 2022).
# pIC50: −log10 of the molar value. Several values for one entry are separate records, joined by “and”; a condition that tells them apart may be missing. Identical values can stand only once.
# Key:
# EGFR wild-type = target: T1, EGFR wild-type (Homo sapiens, UniProt P00533); assay: Kinase inhibition assay (fluorescent mobility-shift assay); assay type: biochemical; parameters: Kinase activity: unit not given here; conditions: for Kinase activity: EGFR WT, n=1-3
# T1 construct: Recombinant human EGFR (amino acids 668–1210, #PR7295B); purchased Thermo Fisher PR7295B
# T1 sequence (P00533 668-1210): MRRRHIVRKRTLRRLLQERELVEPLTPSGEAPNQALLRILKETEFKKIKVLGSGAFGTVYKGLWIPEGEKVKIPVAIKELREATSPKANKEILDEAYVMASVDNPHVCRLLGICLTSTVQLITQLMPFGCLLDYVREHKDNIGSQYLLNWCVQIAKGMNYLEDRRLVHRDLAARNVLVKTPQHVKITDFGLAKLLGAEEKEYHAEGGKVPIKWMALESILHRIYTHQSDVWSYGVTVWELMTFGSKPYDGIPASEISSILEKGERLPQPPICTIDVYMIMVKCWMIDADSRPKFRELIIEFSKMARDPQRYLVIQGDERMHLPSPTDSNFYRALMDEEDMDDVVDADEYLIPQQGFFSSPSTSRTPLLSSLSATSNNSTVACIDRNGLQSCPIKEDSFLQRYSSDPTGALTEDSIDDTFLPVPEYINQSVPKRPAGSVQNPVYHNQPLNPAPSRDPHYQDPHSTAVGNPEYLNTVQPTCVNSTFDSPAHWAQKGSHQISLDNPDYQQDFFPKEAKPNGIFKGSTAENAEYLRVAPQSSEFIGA
# H1975 cells [1] = assay: Subcellular co-localization of HX103 (confocal); assay type: cell-based, human; conditions: HX103 5 µM, 0.5 h, ER/Mito/Lyso trackers
# Method: Supplementary Figure 6. Application of HX103 in living cells. (a-c) Subcellular co-localization of HX103 with Lyso tracker (a), Mito tracker (b) or ER tracker (c). H1975 cells were treated with HX103 (5 µM, 0.5 h) and stained with Lyso tracker ([…], 30 min), Mito tracker (100 nM, 15 min) or ER tracker (500 nM, 15 min). After a PBS washing, the cells were used for confocal microscopy. Scale bar, 20 µm. Three biological independent experiments were repeated with similar results. (d) The mean fluorescence intensity analysis along white arrows in the overlay image in (a-c). Source data are provided as a Source Data file.
# (1 picture or pasted object on this page, not shown here)
# [2] = system: biopsy samples from NSCLC patients; assay: HX103-based multicolor FACS, biopsy samples; assay type: cell-based, human
# H1975 cells [3] = assay: MTT cytotoxicity assay; assay type: cell-based; conditions: Homo sapiens, NCI-H1975; EGFR L858R/T790M, 48 h, n=3
# HCC827 cells = assay: MTT cytotoxicity assay; assay type: cell-based; conditions: Homo sapiens, EGFR 19del, 48 h, n=3
# A549 cells = assay: FACS assay in cultured cells; conditions: for HX103 dose-dependent signal (Supplementary Fig. 18): 20 µM = 100
# Method: Briefly, the cultured cells were seeded on the petri dish and counted using Count star BioMed automated cell counter. Around 10^6 live-cells were collected and were pelleted (2000×g, 3 min), followed by washing with PBS (2x). Cells were then resuspended in PBS buffer containing 0.1% BSA (1 × 10^6 cells/mL). […] The cell suspension was resuspended in PBS and analyzed with a FACSVerse^TM flow cytometer (BD Biosciences, LSRFortessa). About 10,000 events per tube were analyzed and the mean fluorescence intensity was detected and analyzed.
# (§1) For the FACS assay with EGFR antibody, around 10^6 live-cells were collected and washed with PBS (2x). The cells were fixed by 400 µL 4% paraformaldehyde for 15 min at room temperature, followed by permeabilization with 0.1% Triton X-100 for 10 min and blocking with 5% BSA for 30 min. […] The cells were then washed with 0.5% BSA/PBS (3x) and resuspended in 400 µL of 0.1% BSA/PBS. […] The resuspended cell suspension was then analyzed on a FACSVerseTM flow cytometer (BD Biosciences, LSRFortessa). Nonspecific fluorescence binding was omitted by Rabbit mAb IgG isotype control (#3900, CST, 1:100) and the corresponding mean fluorescence was subtracted from the signal measured with each primary antibody. About 10,000 events per tube were analyzed and the mean fluorescence intensity was detected and analyzed.
# (§2) Subsequently, the treated cells were incubated for 30 min at 37 °C, followed by washing with PBS buffer three times. […] Finally, the co-stained cells were washed with 0.5% BSA/PBS for three times and resuspended in 400 µL of 0.1% BSA/PBS. The obtained cell suspension was ready for analysis. Nonspecific fluorescence binding was omitted by Rabbit mAb IgG isotype control (#3900, CST, 1:100) as described above.
# (§3) Nonspecific fluorescence binding was omitted by Rabbit mAb IgG isotype control (#3900, CST, 1:100). […] After incubation for another 30 min at room temperature, the co-stained cells were washed with 0.5% BSA/PBS for three times and resuspended in 400 µL of 0.1% BSA/PBS. The obtained cell suspension was ready for analysis. Nonspecific fluorescence binding was omitted by Rabbit mAb IgG isotype control (#3900, CST, 1:100) as described above.
# (§4) The cells were seeded on the petri dish and cultured at the normal condition with 10% FBS, and that was changed to serum-free condition for 24 h when the cells proliferated at ~80% confluence. […] Nonspecific fluorescence binding was omitted by Rabbit mAb IgG isotype control (#3900, CST, 1:100) as described above.
# [4] = system: tumor tissues from NSCLC patients; assay: HX103-based multicolor FACS, surgical tumor tissues; assay type: cell-based, human
# Method: The obtained tissues were dissociated into single-cell suspension using a standard protocol of primary cell isolation. Briefly, the obtained fresh tissue was placed in a petri dish on ice and cut into small pieces of ~2 mm. […] Subsequently, the digested sample was filtered through 70-μm and 40-μm cell strainer (Falcon), respectively, followed by the wash with serum-free medium (DMEM). The tumor cell pellet was then obtained by centrifugation at 500×g for 5 min at 4 °C for the removal of the supernatant. Then, the cell pellet was resuspended in serum-free medium and 1 mL of red blood cell lysis buffer was added and incubated for 5 min to remove the erythrocyte. The cells were pelleted and resuspended in a serum-free medium and ready for FACS analysis[67],[68]. […]
# Gibco), and digested for 30 min at 37 ℃ under gentle agitation. […] The cells were pelleted and resuspended in serum-free medium and ready for FACS analysis 2, 3. […]
# The co-staining was performed for 30 min at 37 °C, then the cells were pelleted (2000 g, 3 min) and washed with PBS buffer and PBS (containing 1% BSA) (2 times). The cells were pelleted (2000 g, 3 min) and resuspended in PBS (containing 1% BSA) and ready for analysis with a FACSVerseTM flow cytometer (BD Biosciences, LSRFortessa) (the lasers used for this study: 405 nm, 488 nm and 647 nm). […]
# MTT cytotoxicity assay [5] = assay type: cell-based; conditions: human, HeLa cells, EGFR wild-type, n=3
# MTT cytotoxicity assay [6] = assay type: cell-based; conditions: human, A549 cells, EGFR wild-type, n=3
# Method: The cytotoxicity of the tested compounds against selected cell lines was measured by 3-(4,5-dimethylthiazol-2-yl)-2,5-diphenl tetrazolium bromide (MTT) assay. Briefly, cells (3000 per well) were plated in 96-well plate for 24 h and 100 µL of medium with di fferent concentrations of the tested compounds was added to each well for 48 h. Then 20 μL of MTT (5 mg/mL, Sigma-Aldrich) was added and incubate at 37 ℃ for 4 h, resulting the formation of the formazan crystal. The formed formazan crystal was dissolved with 150 μL of DMSO after removing the medium. The absorbance of each well was measured at 570 nm wavelength. The inhibition rate was calculated by the formula: (OD control group - OD treated group)/OD control group ×100%. The experiments were repeated at least three times. The IC50 values were determined by plotting a log (inhibitor) vs. normalized response (Variable slope) dose-response curve generated using GraphPad Prism […]
# Immunohistochemistry staining
# The obtained tumor tissues were sectioned into about 3 µm thickness layers. The general protocol of immunohistochemistry (IHC) was applied for the experiment. Firstly, the tissue slices were deparaffinized in xylene before immersion in 100% ethanol, followed by antigen repair. […]
# EGFR = target: T2, EGFR (Homo sapiens, UniProt P00533); assay: Fluorescence spectra of HX103 with EGFR, alone or with competing inhibitors (Fig. 2a); assay type: binding
# T2 construct: Recombinant human EGFR (amino acids 668–1210, #PR7295B); purchased Thermo Fisher PR7295B
# T2 sequence (P00533 668-1210): as above
# PC-9 cells = assay: MTT cytotoxicity assay; assay type: cell-based; conditions: Homo sapiens, EGFR 19del, 48 h, n=3
# BSA = BSA (Bos taurus, UniProt P02769); assay: Fluorescence response of HX103 with BSA (control protein); assay type: binding; conditions: Fig. 2d, n=1-3
# BSA, sequence (P02769 25-607): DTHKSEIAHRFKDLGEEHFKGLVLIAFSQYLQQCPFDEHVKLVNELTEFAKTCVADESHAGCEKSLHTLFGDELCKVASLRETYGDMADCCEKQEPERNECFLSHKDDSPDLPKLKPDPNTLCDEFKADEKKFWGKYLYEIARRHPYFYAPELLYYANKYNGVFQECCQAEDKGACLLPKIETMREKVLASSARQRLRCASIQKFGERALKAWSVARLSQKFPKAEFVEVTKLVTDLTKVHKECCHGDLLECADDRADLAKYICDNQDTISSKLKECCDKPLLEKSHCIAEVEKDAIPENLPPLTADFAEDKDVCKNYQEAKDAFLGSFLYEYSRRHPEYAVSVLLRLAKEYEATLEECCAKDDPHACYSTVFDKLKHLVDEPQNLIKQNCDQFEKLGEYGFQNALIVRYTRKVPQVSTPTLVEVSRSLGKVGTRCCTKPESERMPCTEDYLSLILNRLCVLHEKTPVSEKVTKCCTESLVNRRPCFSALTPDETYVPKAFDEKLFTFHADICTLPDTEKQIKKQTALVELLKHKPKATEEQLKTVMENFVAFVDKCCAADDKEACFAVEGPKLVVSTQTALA
# Jurkat cells = assay: FACS assay in cultured cells
# Method: The FACS assay was performed according to the reported literatures[67],[68]. Briefly, the cultured cells were seeded on the petri dish and counted using Count star BioMed automated cell counter. Around 10^6 live-cells were collected and were pelleted (2000×g, 3 min), followed by washing with PBS (2x). Cells were then resuspended in PBS buffer containing 0.1% BSA (1 × 10^6 cells/mL). […] The cell suspension was resuspended in PBS and analyzed with a FACSVerse^TM flow cytometer (BD Biosciences, LSRFortessa). About 10,000 events per tube were analyzed and the mean fluorescence intensity was detected and analyzed.
# as §1, §2, §3, §4
# [7] = Fig. 6d, Mutation, average over patients
# [8] = Fig. 6d, Mutation, one value per patient
# [9] = Fig. 6d, WT, average over patients
# [10] = Fig. 6d, WT, one value per patient
# [11] = HX103 5 µM, 30 min, replicates n=1-3
compound,measurement,setting,value
COc1cc2c(Nc3ccc(F)c(Cl)c3)ncnc2cc1OCCCNc1ccc(S(=O)(=O)N(C)C)c2nonc12 [HX103],Kinase activity,EGFR wild-type; Log [HX103 (M)] -7,3.448 and 5.933 and 4.591
same,Kinase activity,EGFR wild-type; Log [HX103 (M)] -7.5,17.07 and 12.53 and 15.46
same,Kinase activity,EGFR wild-type; Log [HX103 (M)] -8,28.39 and 28.36 and 28.22
same,Kinase activity,EGFR wild-type; Log [HX103 (M)] -8.5,52.62 and 55.81 and 54.21
same,Kinase activity,EGFR wild-type; Log [HX103 (M)] -9,85.4 and 76.53 and 77.56
same,pIC50,EGFR wild-type; n = 3,8.40
same,subcellular distribution of HX103-labeled EGFR,H1975 cells [1],internalized and translocated in the endoplasmic reticulum
same,"mean ratio of EGFR(+)HX103(+), responders","[2]; CR or PR, n = 9",43.5 ± 2.8%
same,"mean ratio of HX103(+), responders","[2]; CR or PR, n = 9",54.1 ± 3.3%
same,EGFR(+) HX103 (+) (%) AVE,"[2]; Fig. 6f, CR/PR, average",43.5167%
same,HX103 (+) (%) AVE,"[2]; Fig. 6f, CR/PR, average",54.1%
same,EGFR(+) HX103 (+) (%) AVE,"[2]; Fig. 6f, SD/PD, average",9.47%
same,HX103 (+) (%) AVE,"[2]; Fig. 6f, SD/PD, average",17.0025%
same,EGFR(+) HX103 (+) (%),"[2]; Fig. 6g, Patient (No. 3)",26.16%
same,EGFR(+) HX103 (+) (%),"[2]; Fig. 6h, Patient (No. 7)",34.2%
same,HX103(+) (%),"[2]; Fig. 6h, Patient (No. 7)",51.5%
same,EGFR(+) HX103 (+) (%) AVE,[2]; [7],34.0833%
same,HX103 (+) (%) AVE,[2]; [7],48.2347%
same,EGFR(+) HX103 (+) (%),[2]; [8],47.7% and 46.42% and 26.16% and 37.95% and 54.7% and 42.61% and 34.2% and 4.84% and 50.92% and 41.57% and 2.07% and 30.8% and 55.7% and 4.81%
same,HX103(+) (%),[2]; [8],47.95% and 53.5% and 30.41% and 49.49% and 61.89% and 48.6% and 51.54% and 13.72% and 92.61% and 50.98% and 11.82% and 76% and 77.45% and 45.5% and 12.06%
same,EGFR(+) HX103 (+) (%) AVE,[2]; [9],3.4875%
same,HX103 (+) (%) AVE,[2]; [9],10.0231%
same,EGFR(+) HX103 (+) (%),[2]; [10],2.605% and 13.7% and 4.44% and 3.27% and 0.6% and -0.34% and 1.35% and 4.89% and 0.098% and 0.24% and 1.08% and 10.76% and 4.24% and 2.1% and 0.447% and 6.32%
same,HX103(+) (%),[2]; [10],5.005% and 21.85% and 10.96% and 7.41% and 3.16% and -1.81% and 3.59% and 12.92% and 4.005% and 1.16% and 7.12% and 18.43% and 19.52% and 10.47% and 20.56% and 16.02%
same,"mean ratio of EGFR(+)HX103(+), non-responders","[2]; SD or PD, n = 4",9.5 ± 5.6%
same,"mean ratio of HX103(+), non-responders","[2]; SD or PD, n = 4",17.0 ± 4.5%
same,pIC50,H1975 cells [3],4.35
same,pIC50,HCC827 cells,5.03
same,EGFR(+) HX103 (+) (%) AVE,"A549 cells; A549, AVE of n=3",13.21%
same,HX103 (+) (%) AVE,"A549 cells; A549, AVE of n=3",14.4253%
same,HX103 dose-dependent signal (Supplementary Fig. 18),"A549 cells; A549, HX103 0.04 µM",1.227 and 1.64 and 1.474
same,HX103 dose-dependent signal (Supplementary Fig. 18),"A549 cells; A549, HX103 0.37 µM",16.7962 and 13.0237 and 14.9399
same,HX103 dose-dependent signal (Supplementary Fig. 18),"A549 cells; A549, HX103 1.1 µM",32.8472 and 24.022 and 28.4446
same,HX103 dose-dependent signal (Supplementary Fig. 18),"A549 cells; A549, HX103 3.3 µM",43.6352 and 41.2034 and 42.4293
same,HX103 dose-dependent signal (Supplementary Fig. 18),"A549 cells; A549, HX103 10 µM",71.5104 and 62.9379 and 67.2341
same,HX103 dose-dependent signal (Supplementary Fig. 18),"A549 cells; A549, HX103 15 µM",96.2656 and 89.3616 and 85.8336
same,HX103 dose-dependent signal (Supplementary Fig. 18),"A549 cells; A549, HX103 20 µM",100
same,HX103 signal (Supplementary Fig. 7),"A549 cells; A549, HX103 alone or with Gefitinib, replicates n=1-3",102.046 and 98.7743 and 99.18
same,EGFR(+) HX103 (+) (%),"A549 cells; A549, replicates n=1-3",7.43% and 15.21% and 16.99%
same,HX103(+) (%),"A549 cells; A549, replicates n=1-3",14.626% and 17.32% and 11.33%
same,normalized MFI of HX103 labeling,A549 cells; [11],51.9313% and 58.1545% and 55.0429%
same,EGFR(+) HX103 (+) (%),"A549 cells; HX103 5 µM, replicates n=1-3",15.21% and 16.99% and 7.43%
same,"mean % value of HX103(+), EGFR 19del tumors",[4]; n = 4,40.6±8.2%
same,"mean % value of HX103(+), EGFR L858R tumors",[4]; n = 8,65.3±10.9%
same,IC50 at 48 h,MTT cytotoxicity assay [5],> 100 µM
same,IC50 at 48 h,MTT cytotoxicity assay [6],18 µM
same,"Fluorescence intensity, HX103+EGFR",EGFR; wavelength 666 nm,3266.47
same,"Fluorescence intensity, HX103+EGFR",EGFR; wavelength 669 nm,3104.58
same,"Fluorescence intensity, HX103+EGFR",EGFR; wavelength 671 nm,2932.33
same,"Fluorescence intensity, HX103+EGFR",EGFR; wavelength 673 nm,2750.71
same,"Fluorescence intensity, HX103+EGFR",EGFR; wavelength 676 nm,2569.21
same,"Fluorescence intensity, HX103+EGFR",EGFR; wavelength 678 nm,2397.75
same,"Fluorescence intensity, HX103+EGFR",EGFR; wavelength 681 nm,2246.21
same,"Fluorescence intensity, HX103+EGFR",EGFR; wavelength 683 nm,2119.91
same,"Fluorescence intensity, HX103+EGFR",EGFR; wavelength 686 nm,2016.43
same,"Fluorescence intensity, HX103+EGFR",EGFR; wavelength 688 nm,1932.61
same,"Fluorescence intensity, HX103+EGFR",EGFR; wavelength 690 nm,1865.3
same,"Fluorescence intensity, HX103+EGFR",EGFR; wavelength 693 nm,1811.29
same,"Fluorescence intensity, HX103+EGFR",EGFR; wavelength 695 nm,1767.27
same,"Fluorescence intensity, HX103+EGFR",EGFR; wavelength 698 nm,1729.9
same,"Fluorescence intensity, HX103+EGFR",EGFR; wavelength 700 nm,1695.87
same,pIC50,PC-9 cells,5.74
same,Fluorescence intensity at 570 nm,BSA,39.1473 and 21.3173 and 35.8927
same,normalized MFI of HX103 labeling,Jurkat cells; [11],17.5966% and 26.6094% and 22.103%
same,EGFR(+) HX103 (+) (%),"Jurkat cells; HX103 5 µM, replicates n=1-3",0.1% and 0.22% and -0.02%
same,EGFR(+) HX103 (+) (%) AVE,"Jurkat cells; Jurkat, AVE of n=3",0.1%
same,HX103 (+) (%) AVE,"Jurkat cells; Jurkat, AVE of n=3",0.05667%
same,EGFR(+) HX103 (+) (%),"Jurkat cells; Jurkat, replicates n=1-3",-0.02% and 0.1% and 0.22%
same,HX103(+) (%),"Jurkat cells; Jurkat, replicates n=1-3",0.07% and 0.01% and 0.09%
